Results as given in patent US9677140B2, “Molecular diagnostic test for cancer” (Almac Diagnostics Limited, priority 2010, dated 2017).

What was measured:
[1] = test system: HCC1937 BRCA1 mutant and HCC1937-BR (BRCA1 corrected) breast cancer cell-lines; settings: HCC1937 BRCA1 mutant cell-line relative to the BRCA1 corrected cell-line (HCC1937-BR); constant exposure, 12-14 days
Method: The HCC1937 parental, HCC1937-EV and HCC1937-BR cell-lines were kindly donated by Professor Paul Harkin from Queen's University College Belfast (QUB). The cell-lines were routinely maintained in RPMI-1640 medium supplemented with 50 U penicillin/ml, 50 μg streptomycin/ml, 2 mM glutamine, 1 mM Sodium Pyruvate and 20% (v/v) fetal bovine serum (FBS). The HCC1937-EV and HCC937-BR cell-lines also required 0.2 ml/mg geneticin. Cell-lines were cultured at 37° C. with a humidified atmosphere of 5% CO2.
Twenty-four hours following seeding the cells were exposed to medium containing increasing doses of drug. Cell medium was replenished every 4-5 days. After 12-14 days the cells were fixed in methanol, stained with crystal violet and counted. The percentage survival of control for a given dose was calculated as the plating efficiencies for that dose divided by the plating efficiencies of vehicle-treated cells. Survival curves and half maximal inhibitory concentration (IC50) values were calculated using GraphPad Prism.

[2] = test system: HCC1937 BRCA1 mutant and HCC1937-BR (BRCA1 corrected) breast cancer cell-lines; assay: Cell viability assay (CellTitre-Glo), determination of cisplatin sensitivity; assay type: cell-based; settings: HCC1937 BRCA1 mutant cell-line relative to the BRCA1 corrected cell-line (HCC1937-BR); 96 hours exposure
Method: For measurement of sensitivity to cisplatin, exponentially growing cells were seeded into 96-well plates. […] Cells were incubated in the presence of drug for 96 hours following which time the viability of the cells was assessed using the Promega CellTitre-Glo luminescent cell viability assay. The sensitivity of the cells was calculated as the percentage of vehicle (DMSO) control.

## O=C(c1cc(Cc2n[nH]c(=O)c3ccccc23)ccc1F)N1CCCNCC1 [KU0058948]
[1]
  sensitivity to PARP-1 inhibitor (clonogenic survival): more sensitive

## N.N.[Cl][Pt][Cl] [cisplatin]
[2]
  sensitivity to cisplatin (cell viability): more sensitive
